# From US20190125672A1, “Fabrication of Magnetic Vesicles for Biomedical Imaging and Delivery” (University of Maryland, College Park, priority 2017, published 2019)
# Experiments:
# [1] = test system: U87MG tumors; test: In vivo tumor suppression; design: species or system mice; conditions: without magnet; Dox-equivalent dose 5 mg/kg i.v.; over 30 days
# Protocol: The therapeutic efficacy was evaluated by monitoring the tumor volume change every two days over 30 days (FIG. 61A).
# The U87MG tumor-bearing mice were randomly divided into six groups with 5 mice in each group. The first group of mice received PBS, as control group; the second group was injected with Dox solution, as “Dox” group; the third group was injected with Dox-MuMVs without magnetic attraction, as “magnet- RGD-” group; the fourth group was injected with RGD-Dox-MuMVs without magnetic enrichment, as “magnet-RGD+” group; the fifth group was injected with Dox-MuMVs under magnetic attraction, as “magnet+RGD-” group; the sixth group was injected with RGD-Dox-MuMVs under magnetic attraction, as “[…]” group. All the experimental groups (2-6 groups) are dispersed in 150 μl PBS before intravenous administration with a Dox-equivalent dose of 5 mg/kg. For the groups under magnetic attraction, the magnet was applied for 1 h along with injection of therapeutic agents. […] after the corresponding treatments, the volume of tumors was measured every other day and calculated by the following equation: V=L×W^2/2. The body weight of the mice was also evaluated during this period to reveal the systemic toxicity of the delivery platform.
# [2] = test system: U87MG cells; test: MTT cytotoxicity assay; conditions: Dox concentration
# Protocol: Cells were plated at a density of 1×10^4 in 96-well plates and cultured at 37° C. for 24 hours. Then the culture medium was replaced and the cells were incubated with different concentrations of Dox, Mu magento-vesicles, Dox-Mu magento-vesicles, and RGD-Dox-Mu magento-vesicles for 1 hour. The concentrations of Fe in MuMVs, Dox-MuMVs and RGD-Dox-MuMVs as well as the concentrations of Dox in free drug, Dox-MuMVs and RGD-Dox-MuMVs groups were kept constant for the purpose of comparison. Then the culture medium was replaced with fresh medium and the cells were incubated for another 12 hours, followed by the addition of 20 μL of the MTT solution (5 mg/mL). After incubation for 4 hours, culture supernatants were carefully removed and 100 μL of DMSO was added into each well to dissolve the purple precipitate. The concentration of the reduced MTT in each well was determined spectrophotometrically by subtraction of the absorbance reading at 650 nm from that measured at 570 nm using a microplate reader (SpectraMax M5). Cell viabilities were presented as the percentage of the absorbance of Dox, MuMVs, Dox-MuMVs and RGD-Dox-MuMVs treated cells to the absorbance of non-treated cells and plotted as Fe and Dox concentrations.
structure (smiles),measurement,setting,value
"COc1cccc2c1C(=O)c1c(O)c3c(c(O)c1C2=O)C[C@@](O)(C(=O)CO)C[C@@H]3O[C@H]1C[C@H](N)[C@H](O)[C@H](C)O1 [Dox, doxorubicin]",tumor growth,[1],Minor delay in tumor growth
same,IC50,[2],0.47 µg/mL
